Measurements from article PMC7522027 (Disease Models & Mechanisms, 2020).

Columns and labels:
[1] = tested on: BMP6-induced SMAD1/5 phosphorylation; assay: BMP6-induced SMAD1/5 phosphorylation in HepG2 cells (immunoblot); type: cell-based, human; conditions: HepG2, BMP6 50 ng/ml; higher concentrations
Procedure: For BMP stimulation, the HepG2 cells (∼50% confluency) were starved on serum-free medium for 6 h. Subsequently, prior to the addition of BMP ligands, the cells were treated with compound for 30 min. Next, the cells were stimulated with BMP2 (50 ng/ml) or BMP6 (50 ng/ml) for 45 min. The cells were then washed with PBS and lysed in Laemmli sample buffer for western blot analysis.
(§1) HepG2 or HEK 293T cells were lysed in Laemmli sample buffer. Proteins were separated by sodium dodecyl sulfate polyacrylamide gel electrophoresis (SDS-PAGE) and transferred onto […] polyvinylidene difluoride (PVDF) membrane (IPVH00010, Merck Millipore). Membranes were blocked using 5% non-fat dry milk in Tris-buffered saline with 0.1% Tween 20 (655204, Merck Millipore) and probed with the respective primary and secondary antibodies. The signal was detected using Clarity™ Western ECL Substrate (1705060, Bio-Rad) and ChemiDoc Imaging System (17001402, Bio-Rad). The antibodies used for immunoblotting were raised against the following proteins: phospho-SMAD1/5/8 ([Persson et al., 1998]; 1:1000), SMAD1 (Cell Signaling Technology, #6944; 1:1000), GAPDH (Merck Millipore, #G8795; 1:5000) and hemagglutinin (HA; Roche, #12CA5; 1:1000).

[2] = tested on: BMP2-induced SMAD1/5-dependent BRE-luc transcriptional reporter; assay: BMP2-induced BRE-luc transcriptional reporter assay in HepG2 cells; type: cell-based, human; conditions: HepG2, BMP2 50 ng/ml; cercosporamide 100 nM to 10 µM, LDN-193189 200 nM
Procedure: For luciferase transcriptional reporter assays, HepG2 cells were seeded in 9-cm plates at ∼60% confluency and transfected with polyethyleneimine (PEI). Twenty-four hours later, the transfected cells were seeded in 24-well plates at ∼60% confluency. Another 24 h later, the cells were serum starved for 6 h. Subsequently the cells were treated with compound or DMSO for 30 min. Thereafter, the cells were stimulated with BMP2 in the presence of compounds (or DMSO) for 16 h (overnight). Subsequently, the cells were washed with PBS and lysed. Luciferase activity was measured using the luciferase reporter assay system from Promega (Leiden, The Netherlands) by a Perkin Elmer luminometer Victor^3 1420. Each DNA transfection mixture was equalized with empty vector when necessary and every experiment was performed in triplicate. β-galactosidase expression construct was co-transfected and β-galactosidase was measured to normalize for differences in transfection efficiency. The BRE-luc reporter construct has been reported previously ([Korchynskyi and ten Dijke, 2002]).

caALK6 = assay: caALK6-induced SMAD1/5 phosphorylation in HEK 293T cells; type: cell-based, human; conditions: cercosporamide 1-10 µM, LDN193189 200 nM
Description: as §1
For experiments with the caALK type I receptor constructs, HEK 293T cells were seeded in 24-well plates at ∼90% confluency and transfected with the DNA expression constructs in the presence of PEI. Thirty hours after transfection, the cells were added to serum-starved medium and treated with compounds for 16 h (overnight). Subsequently, the cells were washed with PBS and lysed in Laemmli sample buffer. […]

zebrafish embryos = assay: zebrafish embryo assay (morphological developmental defects at 48 hpf); type: in vivo, zebrafish (Danio rerio)
Procedure: Zebrafish eggs obtained from family crosses of Tuebingen long fin zebrafish lines were used to assess the biological activity of all samples. The eggs were washed with fresh E3 medium and subsequently divided over 24-well plates, with ten embryos per well in 1000 µl E3 medium. Samples were added to the wells at various times as mentioned in the figures and legends. At 48 hpf, the zebrafish embryos were inspected for morphological developmental defects. Embryos displaying morphological defects were imaged using a Leica MZFLIII microscope equipped with a Leica DFC320 camera or Leica M165 FC microscope equipped with a Leica DMC5400 camera.

[3] = biological target: T1, anaplastic lymphoma kinase (ALK wt, GST-HIS-tag) (Homo sapiens, UniProt Q9UM73); assay: radiometric protein kinase assay, anaplastic lymphoma kinase; type: biochemical; conditions: Fig. 7A
T1 construct: GST; His; purchased ProQinase GmbH (Freiburg, Germany); host or cells: bacteria (so in the source)
T1 sequence (Q9UM73 19-1620): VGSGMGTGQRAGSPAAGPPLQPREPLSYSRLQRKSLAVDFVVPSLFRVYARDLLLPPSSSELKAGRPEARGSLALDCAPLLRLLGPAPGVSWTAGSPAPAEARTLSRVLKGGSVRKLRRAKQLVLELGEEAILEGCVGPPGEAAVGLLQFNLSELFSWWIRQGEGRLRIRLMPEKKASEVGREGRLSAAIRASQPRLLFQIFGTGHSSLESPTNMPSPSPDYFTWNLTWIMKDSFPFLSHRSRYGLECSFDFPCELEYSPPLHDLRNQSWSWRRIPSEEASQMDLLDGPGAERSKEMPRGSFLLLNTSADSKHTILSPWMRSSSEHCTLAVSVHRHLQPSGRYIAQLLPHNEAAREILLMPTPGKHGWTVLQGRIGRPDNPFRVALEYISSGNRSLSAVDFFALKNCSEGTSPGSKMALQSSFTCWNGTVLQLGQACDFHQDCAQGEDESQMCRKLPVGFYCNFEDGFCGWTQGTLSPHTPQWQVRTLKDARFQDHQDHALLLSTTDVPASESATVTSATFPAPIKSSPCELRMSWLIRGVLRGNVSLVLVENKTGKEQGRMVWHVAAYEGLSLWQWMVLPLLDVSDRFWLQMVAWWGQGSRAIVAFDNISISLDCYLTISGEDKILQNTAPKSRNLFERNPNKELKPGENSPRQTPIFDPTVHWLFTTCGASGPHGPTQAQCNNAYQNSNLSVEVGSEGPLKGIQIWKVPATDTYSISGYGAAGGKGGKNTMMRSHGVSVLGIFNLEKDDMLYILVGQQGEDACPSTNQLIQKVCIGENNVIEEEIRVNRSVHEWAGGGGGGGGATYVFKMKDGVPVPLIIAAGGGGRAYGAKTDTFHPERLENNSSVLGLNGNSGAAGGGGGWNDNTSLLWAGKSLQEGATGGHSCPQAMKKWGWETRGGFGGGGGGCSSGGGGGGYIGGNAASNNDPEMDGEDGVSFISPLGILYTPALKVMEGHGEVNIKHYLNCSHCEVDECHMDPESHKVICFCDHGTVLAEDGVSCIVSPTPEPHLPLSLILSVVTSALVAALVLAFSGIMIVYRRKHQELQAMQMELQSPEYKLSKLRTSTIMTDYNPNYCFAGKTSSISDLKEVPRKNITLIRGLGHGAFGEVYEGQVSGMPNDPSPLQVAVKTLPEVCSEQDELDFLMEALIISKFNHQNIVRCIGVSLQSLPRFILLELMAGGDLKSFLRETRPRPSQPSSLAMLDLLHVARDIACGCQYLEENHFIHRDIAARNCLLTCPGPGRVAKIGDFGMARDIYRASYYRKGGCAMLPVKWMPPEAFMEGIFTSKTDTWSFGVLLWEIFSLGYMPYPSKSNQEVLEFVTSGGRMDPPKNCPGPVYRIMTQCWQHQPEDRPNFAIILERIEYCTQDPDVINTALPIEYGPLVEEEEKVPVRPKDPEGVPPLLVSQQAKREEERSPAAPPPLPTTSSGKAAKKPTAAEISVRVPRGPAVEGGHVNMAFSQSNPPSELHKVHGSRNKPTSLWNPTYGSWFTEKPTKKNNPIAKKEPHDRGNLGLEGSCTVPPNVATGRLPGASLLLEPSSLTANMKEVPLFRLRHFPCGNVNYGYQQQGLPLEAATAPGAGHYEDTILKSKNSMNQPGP
Procedure: (§2) IC50 values were calculated using Prism 5.04 for Windows (GraphPad, San Diego, CA, USA; www.graphpad.com). The mathematical model used was ‘Sigmoidal response (variable slope)’ with parameters ‘top’ fixed at 100% and ‘bottom’ at 0%. The fitting method used was a least-squares fit.

TGFB-R1 (ALK5) = biological target: T2, TGFB-R1 (ALK5) (Homo sapiens, UniProt P36897); assay: radiometric protein kinase assay, ALK5; type: biochemical; conditions: [ATP] = 1 μM; Fig. 7K
T2 construct: purchased ProQinase GmbH (Freiburg, Germany); host or cells: bacteria (so in the source)
T2 sequence (P36897 34-503): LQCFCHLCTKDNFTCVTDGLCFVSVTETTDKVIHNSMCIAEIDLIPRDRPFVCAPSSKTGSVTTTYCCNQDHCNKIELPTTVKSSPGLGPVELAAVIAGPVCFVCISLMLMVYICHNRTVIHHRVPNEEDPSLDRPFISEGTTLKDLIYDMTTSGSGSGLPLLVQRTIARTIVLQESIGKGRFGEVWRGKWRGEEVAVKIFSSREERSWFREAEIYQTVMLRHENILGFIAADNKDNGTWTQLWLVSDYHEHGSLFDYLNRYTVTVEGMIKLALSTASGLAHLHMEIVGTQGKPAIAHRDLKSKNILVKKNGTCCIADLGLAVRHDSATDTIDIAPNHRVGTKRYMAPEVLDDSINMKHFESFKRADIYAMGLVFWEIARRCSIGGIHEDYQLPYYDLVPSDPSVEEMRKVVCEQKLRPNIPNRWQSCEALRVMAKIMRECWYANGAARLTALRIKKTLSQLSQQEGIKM
Procedure: as §2

`CC(=O)C1=C(O)C=C2Oc3c(C(N)=O)c(O)cc(O)c3[C@]2(C)C1=O` [cercosporamide, Cercosporamide] was tested, and the “effect on BMP6-induced SMAD1/5 phosphorylation” value [1] was “only minor inhibition”, the “effect on BMP2-induced BRE-luc activity” value [2] was “inhibited the BMP2-induced response in a dose-dependent manner” and the “effect on caALK6-induced SMAD1/5 phosphorylation” value (caALK6) was “inhibited SMAD1/5 phosphorylation”. For the same compound, the “phenotype, combination treatment” value (zebrafish embryos; 50 nM cercosporamide in combination with 5 µM LDN-193189, from 7 hpf onwards) was “partial loss of the ventral fin”, the “developmental defects, single treatment” value (zebrafish embryos; 50 nM, from 7 hpf onwards) was “did not induce detectable developmental defects” and the “phenotype at 48 hpf” value (zebrafish embryos; 100 nM, treatment from 7 hpf) was “abolished the effect”. The “phenotype at 48 hpf” value (zebrafish embryos; 200 nM, treatment started at 2 hpf) was “severely truncated phenotype”, the “phenotype at 48 hpf” value (zebrafish embryos; 200 nM, treatment started at 8 hpf) was “mild phenotype” and the “phenotype at 48 hpf” value (zebrafish embryos; 1.5 µM, treatment from 7 hpf) was “severely truncated phenotype”. For the same compound, the “phenotype at 48 hpf” value (zebrafish embryos; 3 µM, treatment from 7 hpf) was “severely truncated phenotype”, the “lethal concentration in zebrafish embryos” value (zebrafish embryos; treatment from 7 hpf, continuous until 48 hpf) was “above 3 µM” and the IC50 [3] was 10000 nM. The IC50 (TGFB-R1 (ALK5)) was 0.29 µM.
